The source of these data is US11560374B2, “Morpholinylpyridone compounds” (Sprint Bioscience AB, priority 2017, dated 2023).

A value given as a limit tells only on which side of the number the result lay.

For one experiment, the target named is Vps34 enzyme (Homo sapiens (Human), UniProt Q8NEB9). The experiment is described as follows: Vps34 Biochemical Assay (Adapta kinase assay). The note with it: 20 μM ATP and 200 μM PI:PS substrate mix, 1 h at room temperature, TR-FRET, read-out: Median IC50 nM Adapta. As for the experimental part:
Dilution series of compounds of the invention were prepared in DMSO at 100 times the final assay concentration (n1=n0/3 in 10 points). The compounds were further diluted to 4 times the assay concentration in assay buffer (Life technologies buffer Q, PV5125, diluted 5 times supplemented with 2 mM DTT and 2 mM MnCl2). 2.5 μl of the diluted compounds were added to a 384 well assay plate followed by 2.5 μl of 16.5 nM Vps34 enzyme (Life technologies, PV5126). Enzyme and compounds were pre-incubated at rt for 15 min. Then 5 μl of substrate mix containing 20 μM ATP (Life technologies, PV3227) and 200 μM PI:PS substrate (Life technologies, PV5122) in assay buffer was added to the wells containing compound and enzyme. Mixing was performed by pipetting several times. The reaction was incubated at room temperature for 1 h. Then 5 μl stop-detection mix, prepared as described in the Adapta kinase assay kit instructions (Life technologies, PV5099) containing Adapta Eu-anti-ADP antibody (2.3 nM), Alexa Fluor 647 ADP tracer (9 nM) and EDTA (30 mM) in TR-FRET buffer, was added to quench the reaction. Mixing was performed by pipetting several times. The assay plate was then incubated at room temperature for 30 min and read with Artemis micro plate reader. Percent inhibition of the compounds as compared to DMSO treated control samples was calculated. By the use of Dotmatics software compound concentration versus percent inhibition was fitted to generate IC50 values.

The subject of experiment [1] is autophagy in HOS cells (GFP-LC3). The experiment is described as follows: High Content Screening Autophagy Assay (GFP-LC3 foci). The experiment is classed as cell-based. The note with it: Homo sapiens; HOS cells expressing GFP-LC3; autophagy activated with KU-0063794 500 nM and Bafilomycin A1 5 nM; 6 hours; foci area per cell; read-out: Median IC50 nM Cellular assay (HOS-LC3). As for the experimental part: Human osteosarcoma cells (HOS) stably expressing a Green Fluorescent Protein (GFP) tagged LC3 (GFP-LC3) were used to determine the inhibitory effect on autophagy of proprietary compounds. For that purpose, autophagy was activated by using the mTOR inhibitor KU-0063794 at 500 nM in the presence of Bafilomycin A1 (Sigma-Aldrich) at 5 nM. Shortly, cells were plated overnight in clear bottom 96-well plates in DMEM-High Modified media (Hi-Clone Cat #SH30285.01). At the start of the experiment, the media was removed and replaced with fresh media containing the mTOR inhibitor, Bafilomycin A1 and the vehicle or a test compound as indicated. After 6 hours the media was removed, cells were washed twice with ice-cold phosphate buffered saline (PBS) and fixed with 4% paraformaldehyde for 20 minutes at room temperature. Then the cells were washed twice with ice-cold PBS before adding Hoechst 33342 at 1 μg/ml in PBS for nuclear staining. After incubation overnight at 4° C., cells were washed once with PBS to remove the excess of dye and 100 μl of PBS was added to each well. Images were acquired at 20× magnification, 6 images per well, using the ImageXpress automated microscope (Molecular Devices Inc.) and analyzed with MetaXpress software to identify LC3-GFP foci. Foci area per cell values were used to generate dose response curves and IC50 values were calculated using the non-linear fitting analysis in GraphPad Prism software. […] The results of the assay are shown in Table 2 (Median IC50 nM HOS-LC3).

Vps34 enzyme, sequence (Q8NEB9 whole entry): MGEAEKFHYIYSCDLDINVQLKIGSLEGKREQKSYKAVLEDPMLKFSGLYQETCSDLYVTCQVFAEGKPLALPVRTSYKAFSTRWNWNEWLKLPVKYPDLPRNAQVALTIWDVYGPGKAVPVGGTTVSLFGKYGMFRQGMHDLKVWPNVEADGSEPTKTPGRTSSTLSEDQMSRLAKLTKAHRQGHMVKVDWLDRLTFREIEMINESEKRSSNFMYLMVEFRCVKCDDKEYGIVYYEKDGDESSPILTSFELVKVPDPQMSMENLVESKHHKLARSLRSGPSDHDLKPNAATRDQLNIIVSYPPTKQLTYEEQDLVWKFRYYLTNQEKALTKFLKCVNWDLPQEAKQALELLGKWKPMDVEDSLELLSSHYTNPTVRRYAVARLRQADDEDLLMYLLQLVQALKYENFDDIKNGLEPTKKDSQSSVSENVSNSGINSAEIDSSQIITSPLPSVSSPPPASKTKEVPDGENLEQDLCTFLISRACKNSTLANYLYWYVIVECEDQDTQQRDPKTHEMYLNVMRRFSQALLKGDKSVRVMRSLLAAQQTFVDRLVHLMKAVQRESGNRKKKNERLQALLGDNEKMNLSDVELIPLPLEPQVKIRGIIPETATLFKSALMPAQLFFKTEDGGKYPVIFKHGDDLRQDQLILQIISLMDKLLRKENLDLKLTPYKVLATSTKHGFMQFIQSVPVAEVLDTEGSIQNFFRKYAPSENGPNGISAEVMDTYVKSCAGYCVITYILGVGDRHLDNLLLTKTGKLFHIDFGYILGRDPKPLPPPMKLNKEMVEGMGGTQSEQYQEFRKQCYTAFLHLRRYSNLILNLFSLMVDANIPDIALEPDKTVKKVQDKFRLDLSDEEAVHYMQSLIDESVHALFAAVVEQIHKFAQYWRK

Broadly, the IC50 is the concentration at which inhibition is half-maximal. Take `C[C@@H]1COCCN1c1cc(N2CCN(S(C)(=O)=O)CC2C(F)(F)F)[nH]c(=O)c1` (single isomer, unassigned) [Example 6-1]: the IC50 is below 5 nM at Vps34 enzyme and 33 nM in experiment [1].
In the case of `C[C@@H]1COCCN1c1cc(N2CCN(S(C)(=O)=O)CC2C(F)(F)F)[nH]c(=O)c1` (single isomer, unassigned) [Example 6-2], the 50% inhibitory concentration (IC50) at Vps34 enzyme worked out at 15 nM.
Consider `C[C@@H]1COCCN1c1cc(N2CCN(S(=O)(=O)Cc3ccc(F)cc3)CC2C(F)(F)F)[nH]c(=O)c1` (stereo partly drawn) [Example 8, 6-[4-[(4-Fluorophenyl)methylsulfonyl]-2-(trifluoromethyl)piperazin-1-yl]-4-[(3R)-3-methylmorpholin-4-yl]-1H-pyridin-2-one], for which the IC50 on Vps34 enzyme is below 5 nM; in experiment [1] it was 12 nM.
The like results for `C[C@@H]1COCCN1c1cc(N2CCN(S(=O)(=O)c3cncc(F)c3)CC2C(F)(F)F)[nH]c(=O)c1` (stereo partly drawn) [Example 10, 6-[4-[(5-Fluoro-3-pyridyl)sulfonyl]-2-(trifluoromethyl)piperazin-1-yl]-4-[(3R)-3-methylmorpholin-4-yl]-1H-pyridin-2-one] were, in that order, below 5 nM and 106 nM.
Taken in the same sequence, the figures for `C[C@@H]1COCCN1c1cc(N2CCN(S(=O)(=O)C3CCOC3)CC2C(F)(F)F)[nH]c(=O)c1` (stereo partly drawn) [Example 12, 4-[(3R)-3-methylmorpholin-4-yl]-6-[4-tetrahydrofuran-3-ylsulfonyl-2-(trifluoromethyl)piperazin-1-yl]-1H-pyridin-2-one] were below 5 nM and 55 nM.
In the case of `C[C@@H]1COCCN1c1cc(N2CCN(S(=O)(=O)N3CCCC3)CC2C(F)(F)F)[nH]c(=O)c1` (stereo partly drawn) [Example 14, 4-[(3R)-3-methylmorpholin-4-yl]-6-[4-pyrrolidin-1-ylsulfonyl-2-(trifluoromethyl)piperazin-1-yl]-1H-pyridin-2-one], the half-inhibitory concentration (IC50) on Vps34 enzyme was below 5 nM.
In the case of `C[C@@H]1COCCN1c1cc(N2CCN(S(=O)(=O)N(C)C)CC2C(F)(F)F)[nH]c(=O)c1` (stereo partly drawn) [Example 16, N,N-dimethyl-4-[4-[(3R)-3-methylmorpholin-4-yl]-6-oxo-1H-pyridin-2-yl]-3-(trifluoromethyl)piperazine-1-sulfonamide], the IC50 was below 5 nM at Vps34 enzyme and 17 nM in experiment [1].
The like results for `COCCS(=O)(=O)N1CCN(c2cc(N3CCOC[C@H]3C)cc(=O)[nH]2)C(C(F)(F)F)C1` (stereo partly drawn) [Example 18, 6-[4-(2-Methoxyethylsulfonyl)-2-(trifluoromethyl)piperazin-1-yl]-4-[(3R)-3-methylmorpholin-4-yl]-1H-pyridin-2-one] were, in that order, below 5 nM and 83 nM.
Taken in the same sequence, the figures for `C[C@@H]1COCCN1c1cc(N2CCN(S(=O)(=O)c3ccc(F)cc3)CC2C(F)(F)F)[nH]c(=O)c1` (stereo partly drawn) [Example 20, 6-[4-(4-Fluorophenyl)sulfonyl-2-(trifluoromethyl)piperazin-1-yl]-4-[(3R)-3-methylmorpholin-4-yl]-1H-pyridin-2-one] were below 5 nM and 223 nM.
For the compound `C[C@@H]1COCCN1c1cc(N2CCN(S(=O)(=O)c3ccnn3C)CC2C(F)(F)F)[nH]c(=O)c1` (stereo partly drawn) [Example 22, 4-[(3R)-3-methylmorpholin-4-yl]-6-[4-(2-methylpyrazol-3-yl)sulfonyl-2-(trifluoromethyl)piperazin-1-yl]-1H-pyridin-2-one], the IC50 in experiment [1] turned out to be 95 nM.
`C[C@@H]1COCCN1c1cc(N2CCN(S(=O)(=O)C3CC3)CC2C(F)(F)F)[nH]c(=O)c1` (stereo partly drawn) [Example 24, 6-[4-Cyclopropylsulfonyl-2-(trifluoromethyl)piperazin-1-yl]-4-[(3R)-3-methylmorpholin-4-yl]-1H-pyridin-2-one]: in experiment [1], the concentration for half-maximal inhibition (IC50) is 28 nM.
Consider `C[C@@H]1COCCN1c1cc(N2CCN(S(=O)(=O)N3CCCCC3)CC2C(F)(F)F)[nH]c(=O)c1` (stereo partly drawn) [Example 26, 4-[(3R)-3-methylmorpholin-4-yl]-6-[4-(1-piperidylsulfonyl)-2-(trifluoromethyl)piperazin-1-yl]-1H-pyridin-2-one], for which the IC50 on Vps34 enzyme was below 5 nM; in experiment [1], 139 nM.
Consider `C[C@@H]1COCCN1c1cc(N2CCN(S(=O)(=O)N3CCOCC3)CC2C(F)(F)F)[nH]c(=O)c1` (stereo partly drawn) [Example 28, 4-[(3R)-3-methylmorpholin-4-yl]-6-[4-morpholinosulfonyl-2-(trifluoromethyl)piperazin-1-yl]-1H-pyridin-2-one], for which the half-inhibitory concentration (IC50) in experiment [1] was 248 nM.
In the case of `Cc1nc(S(=O)(=O)N2CCN(c3cc(N4CCOC[C@H]4C)cc(=O)[nH]3)C(C(F)(F)F)C2)cn1C` (stereo partly drawn) [Example 30, 6-[4-(1,2-Dimethylimidazol-4-yl)sulfonyl-2-(trifluoromethyl)piperazin-1-yl]-4-[(3R)-3-methylmorpholin-4-yl]-1H-pyridin-2-one], the concentration for half-maximal inhibition (IC50) on Vps34 enzyme was below 5 nM; in experiment [1] it was 84 nM.
Regarding `C[C@@H]1COCCN1c1cc(N2CCN(S(=O)(=O)C3(C)CC3)CC2C(F)(F)F)[nH]c(=O)c1` (stereo partly drawn) [Example 31, 6-[4-(1-methylcyclopropyl)sulfonyl-2-(trifluoromethyl)piperazin-1-yl]-4-[(3R)-3-methylmorpholin-4-yl]-1H-pyridin-2-one], the half-maximal inhibitory concentration (IC50) at Vps34 enzyme was below 5 nM.
`C[C@@H]1COCCN1c1cc(-c2ccc(S(C)(=O)=O)cc2C(F)(F)F)[nH]c(=O)c1` [Example 33, 4-[(3R)-3-methylmorpholin-4-yl]-6-[4-methylsulfonyl-2-(trifluoromethyl)phenyl]-1H-pyridin-2-one]: the results for the IC50 (at Vps34 enzyme; in experiment [1]) were below 5 nM and 491 nM, respectively.
The like results for `C[C@@H]1COCCN1c1cc(-c2ccc(S(=O)(=O)N(C)C)cc2C(F)(F)F)[nH]c(=O)c1` [Example 35, N,N-dimethyl-4-[4-[(3R)-3-methylmorpholin-4-yl]-6-oxo-1H-pyridin-2-yl]-3-(trifluoromethyl)benzenesulfonamide] were, in that order, below 5 nM and 458 nM.
